Measurements published in patent US12427151B2, “Compositions and method of treating cancer” (The Regents of the University of California, priority 2017, dated 2025).

Tested on: L5178Y tk+/- mouse lymphoma cells
Assay: Mutagenic activity at the thymidine kinase (tk) locus
Format: cell-based
Details: compared to vehicle
Description: Because some nucleobase analogs exert mutagenic activities due to their misrecognition of wrong bases, mutagenic activity of 6-HAP was determined by detecting mutagenic events at the thymidine kinase (tk) locus of L5178Y tk^+/− mouse lymphoma cells.

COS(C)(=O)=O [methyl methanesulfonate, reference compound]
mutagenic activity, mutation frequency at tk locus: did induce a high mutation frequency
